Measured values: patent US8338423B2, “Compositions for the treatment of hyperphenylalaninemia” (Universidad de Zaragoza, priority 2007, dated 2012)

Columns and labels:
R68S-PAH = target: T1, R68S-PAH (Homo sapiens, UniProt P00439, R68S); test: ANS-monitored thermal unfolding of R68S-PAH; assay type: binding; conditions: for ΔT0.5 PAHR68S / T0.5 PAHR68S: 100 μM compound; for ΔT0.5 PAHR68S: vs no ligand; for T0.5 PAHR68S: mean ± SD; for stabilization of R68S-PAH: 100 μM ligand
T1 construct: made in house; host or cells: E. coli
T1 sequence (P00439 1-452 R68S): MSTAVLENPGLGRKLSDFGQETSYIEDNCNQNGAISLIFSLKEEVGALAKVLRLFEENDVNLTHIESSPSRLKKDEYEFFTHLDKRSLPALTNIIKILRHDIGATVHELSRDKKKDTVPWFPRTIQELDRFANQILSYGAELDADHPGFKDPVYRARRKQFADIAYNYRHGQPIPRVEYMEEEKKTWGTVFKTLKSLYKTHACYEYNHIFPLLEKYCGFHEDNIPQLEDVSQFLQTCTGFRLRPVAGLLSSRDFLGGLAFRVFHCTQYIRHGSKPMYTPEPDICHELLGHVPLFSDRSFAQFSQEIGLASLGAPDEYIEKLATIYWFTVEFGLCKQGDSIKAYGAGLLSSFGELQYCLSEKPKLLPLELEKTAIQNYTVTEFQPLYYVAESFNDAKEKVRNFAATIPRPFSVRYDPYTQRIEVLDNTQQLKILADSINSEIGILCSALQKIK
Experimental: HTS for ligand-induced PAH stabilization was performed by monitoring the thermal denaturation of recombinant pure PAH protein in the presence of the extrinsic fluorescent probe 8-anilino 1-naphtalene sulfonic acid (ANS; Aldrich). HTS experiments were performed in a FluoDia T70 High Temperature Fluorescence Microplate Reader (Photon Technology International). Protein-ligand solutions (200 uL) were dispensed into 96-well microplates (ThermoFast®96 Skirted from Abgene) and overlayed with mineral oil. Protein solutions contained 0.1 mg/ml PAH (2 μM in PAH subunit) in 20 mM Hepes 200 mM NaCl pH 7.0 and 100 μM ANS. Ligands were added in DMSO, at 100 μM and 2.5% final concentration, respectively. Control experiments in the absence of DMSO and/or ligands were routinely performed in each microplate. Ligands (from MayBridge HitFinder™ Collection Database) were manually added to the microplates containing the protein solutions and incubated at 25° C. for 30 min before loading them onto the microplate reader. Thermal denaturation was monitored by following the increase in ANS fluorescence intensity due to protein unfolding λexc=395 and λern=500 nm; filters (Matulis D, et. Al., Biochemistry 2005, 44(13):5258-66). Fluorescence was registered in the 25-75° C. range, at a 1° C./min scan rate and allowing the system to equilibrate at each temperature for 1 min before fluorescence acquisition The experiments were real-time monitored using the software provided by the manufacturer. After smoothing and normalization of the experimental data, ligand induced stabilization was screened by estimation of the T0.5 as midpoint temperature of the transition defined as the temperature where half of the unfolded fluorescence signal (fu) is experimentally observed, using a home-built software written in C++ and the following expression (equation 1): […]
Additional thermal denaturation experiments were performed on a Cary Eclipse fluorescence spectrophotometer equipped with a temperature controlled Peltier multicell holder (Varian). Samples containing PAH (2 μM subunit) in 20 mM NaHepes, 200 mM NaCl, pH 7.0, 100 μM ANS, 2.5% DMSO and 0-100 μM ligands were incubated at room temperature for 30 min to allow equilibration prior to measurements. Thermal denaturation was monitored by following changes in ANS fluorescence emission (excitation at 395 and emission at 500 nm; slits 10 nm) at a 1 K/min in a 20-80° C. range. Each run contained 4 different samples, including a control in the absence of ligand. Data analysis was performed by fitting of the experimental fluorescence to equation 1.
Similar ligand-induced stabilization experiments were performed using i) a double truncated form of PAH equivalent to the catalytic domain (PAH103-428) lacking both the regulatory N-terminal domain and the tetramerization motif and existing as a functional dimmer and ii) the R68S-PAH mutant, associated to mild PKU and one of the few PKU mutants that display enough stability to be purified as a stable tetramer.

[1] = test system: wt-PAH and I65T and R68S mutants expressed in A293 cells; test: PAH activity in extracts of transiently transfected A293 cells; assay type: cell-based, human; conditions: 40 μM compound, 24 h, vs DMSO 1% controls (FIG. 4A)
Experimental: Human embryonic kidney cells (A293; purchased from Invitrogen) were grown in Dulbecco's Modified Eagle's Medium (DMEM) containing 4.5 g/l glucose, 10% (v/v) fetal calf serum, 2 mM L-glutamine, 100 i.u./ml penicillin, 100 μg/ml streptomycin and 0.25 mg/ml G-418. A293 cells were transiently transfected with 1 μg of pcDNA3-PAH expression vector (wt or mutant PAH constructs), using the lipofectamine system (Gibco, Invitrogen) as described by the manufacturer. Pharmacological chaperones were added after 5 h of transfection (final concentration 40 μM ligand in DMSO 1%), incubated for 24 h and cells were then harvested and stored at −80° C. […]
Western blot analyses were performed after SDS-PAGE (10% acrylamide) using as primary antibody a monoclonal mouse ant-human PAH (Chemicon, Australia) and as secondary antibody a goat anti-mouse HRP conjugate (Bio-Rad, US). Detection was performed using a chemiluminiscence method (ECL; Amersham Biosciences) and quantified an a Fluor-S™ Multilmager (Bio-Rad, US) using Quantify one v. […]
After transfection of A293 cells with constructs carrying wt-PAH and PKU mutants cDNA, the cells were incubated for 24 h in the presence or absence of 40 μM of hit compounds 11 and 13. Cell were harvested and immunoreactive PAH protein and PAH activity were measured in soluble cell extracts. […]

With `Cc1onc(-c2ccccc2)c1-c1n[nH]c(N)c1C#N` [Compound 5, 5-amino-3-(5-methyl-3-phenyl-4-isoxazolyl)-1H-pyrazole-4-carbonitrile] the “ΔT0.5 PAHR68S” value (R68S-PAH) was 1.1 °C and the “T0.5 PAHR68S” value (R68S-PAH) was 50.0 ± 1.4 °C.
With `Cn1cnc([N+](=O)[O-])c1N1CCN(C(c2ccccc2)c2ccccc2)CC1` [Compound 6, 1-benzhydryl-4-(1-methyl-4-nitro-1H-imidazol-5-yl)piperazine] the “ΔT0.5 PAHR68S” value (R68S-PAH) was 3.2 °C, the “T0.5 PAHR68S” value (R68S-PAH) was 52.1 ± 1.6 °C and the “stabilization of R68S-PAH” value (R68S-PAH) was “significantly stabilized”.
`Nc1c(-c2ccc3ccccc3n2)c2ccc([N+](=O)[O-])cc2c(=O)n1Cc1ccccc1` [Compound 11, 3-amino-2-benzyl-7-nitro-4-(2-quinolyl)-1,2-dihydroisoquinolin-1-one] was tested, and the “ΔT0.5 PAHR68S” value (R68S-PAH) was 8.2 °C, the “T0.5 PAHR68S” value (R68S-PAH) was 57.1 ± 0.3 °C and the “stabilization of R68S-PAH” value (R68S-PAH) was “significantly stabilized”. The PAH activity enhancement [1] was 60-100%.
In the case of `Cc1ccnc(-n2c(=S)[nH]c3sc(C)c(C)c3c2=O)c1` [Compound 13, 5,6-dimethyl-3-(4-methyl-2-pyridinyl)-2-thioxo-2,3 dihydrothieno[2,3-d]pyrimidin-4(1H)-one], the “ΔT0.5 PAHR68S” value (R68S-PAH) is reported as 1.6 °C, the “T0.5 PAHR68S” value (R68S-PAH) is reported as 50.5 ± 0.5 °C and the “stabilization of R68S-PAH” value (R68S-PAH) is reported as “only a slight stabilized”. The PAH activity enhancement [1] was 40-50%.
